This is an account of results in ChEMBL document CHEMBL5653631, “A Potent and Selective ULK1 Inhibitor Suppresses Autophagy and Sensitizes Cancer Cells to Nutrient Stress” (iScience, 2018).

By inhibition is commonly meant the relative decrease from the control value, in per cent.

Structures are written as SMILES.

Test [1] concerns the target Casein kinase I isoform gamma-2 (Homo sapiens) (UniProt P78368). The test is described as follows: Inhibition of human recombinant CK1g2 at 40 nM related to control ULK1.
For test [2], the target named is Protein kinase C eta type (Homo sapiens) (UniProt P24723). The test is described as follows: Inhibition of human recombinant PKCH at 40 nM in presence of ATP by radiometric assay relative to control.
Sequence of Protein kinase C eta type (Homo sapiens) (P24723 whole entry): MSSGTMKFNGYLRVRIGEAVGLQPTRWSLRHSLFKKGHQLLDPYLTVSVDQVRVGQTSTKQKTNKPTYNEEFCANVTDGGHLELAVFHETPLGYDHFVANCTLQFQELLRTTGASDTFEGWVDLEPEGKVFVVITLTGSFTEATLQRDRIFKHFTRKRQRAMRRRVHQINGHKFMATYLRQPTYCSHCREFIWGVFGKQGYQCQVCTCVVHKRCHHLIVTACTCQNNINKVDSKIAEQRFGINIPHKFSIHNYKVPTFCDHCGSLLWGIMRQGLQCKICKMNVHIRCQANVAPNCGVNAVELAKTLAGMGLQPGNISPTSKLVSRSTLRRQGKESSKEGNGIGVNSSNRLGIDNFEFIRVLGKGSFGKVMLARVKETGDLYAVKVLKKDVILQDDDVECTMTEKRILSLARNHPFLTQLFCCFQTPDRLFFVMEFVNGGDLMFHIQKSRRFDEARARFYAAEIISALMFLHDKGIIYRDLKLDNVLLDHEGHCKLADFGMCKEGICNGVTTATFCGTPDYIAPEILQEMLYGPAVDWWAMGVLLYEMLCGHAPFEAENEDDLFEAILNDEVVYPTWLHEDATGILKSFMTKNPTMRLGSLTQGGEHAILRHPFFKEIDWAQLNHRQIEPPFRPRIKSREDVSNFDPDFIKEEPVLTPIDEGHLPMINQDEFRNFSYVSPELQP
Test [3] has as its target T1, Mitogen-activated protein kinase kinase kinase 5 (Homo sapiens) (UniProt Q99683).
T1 sequence (whole entry): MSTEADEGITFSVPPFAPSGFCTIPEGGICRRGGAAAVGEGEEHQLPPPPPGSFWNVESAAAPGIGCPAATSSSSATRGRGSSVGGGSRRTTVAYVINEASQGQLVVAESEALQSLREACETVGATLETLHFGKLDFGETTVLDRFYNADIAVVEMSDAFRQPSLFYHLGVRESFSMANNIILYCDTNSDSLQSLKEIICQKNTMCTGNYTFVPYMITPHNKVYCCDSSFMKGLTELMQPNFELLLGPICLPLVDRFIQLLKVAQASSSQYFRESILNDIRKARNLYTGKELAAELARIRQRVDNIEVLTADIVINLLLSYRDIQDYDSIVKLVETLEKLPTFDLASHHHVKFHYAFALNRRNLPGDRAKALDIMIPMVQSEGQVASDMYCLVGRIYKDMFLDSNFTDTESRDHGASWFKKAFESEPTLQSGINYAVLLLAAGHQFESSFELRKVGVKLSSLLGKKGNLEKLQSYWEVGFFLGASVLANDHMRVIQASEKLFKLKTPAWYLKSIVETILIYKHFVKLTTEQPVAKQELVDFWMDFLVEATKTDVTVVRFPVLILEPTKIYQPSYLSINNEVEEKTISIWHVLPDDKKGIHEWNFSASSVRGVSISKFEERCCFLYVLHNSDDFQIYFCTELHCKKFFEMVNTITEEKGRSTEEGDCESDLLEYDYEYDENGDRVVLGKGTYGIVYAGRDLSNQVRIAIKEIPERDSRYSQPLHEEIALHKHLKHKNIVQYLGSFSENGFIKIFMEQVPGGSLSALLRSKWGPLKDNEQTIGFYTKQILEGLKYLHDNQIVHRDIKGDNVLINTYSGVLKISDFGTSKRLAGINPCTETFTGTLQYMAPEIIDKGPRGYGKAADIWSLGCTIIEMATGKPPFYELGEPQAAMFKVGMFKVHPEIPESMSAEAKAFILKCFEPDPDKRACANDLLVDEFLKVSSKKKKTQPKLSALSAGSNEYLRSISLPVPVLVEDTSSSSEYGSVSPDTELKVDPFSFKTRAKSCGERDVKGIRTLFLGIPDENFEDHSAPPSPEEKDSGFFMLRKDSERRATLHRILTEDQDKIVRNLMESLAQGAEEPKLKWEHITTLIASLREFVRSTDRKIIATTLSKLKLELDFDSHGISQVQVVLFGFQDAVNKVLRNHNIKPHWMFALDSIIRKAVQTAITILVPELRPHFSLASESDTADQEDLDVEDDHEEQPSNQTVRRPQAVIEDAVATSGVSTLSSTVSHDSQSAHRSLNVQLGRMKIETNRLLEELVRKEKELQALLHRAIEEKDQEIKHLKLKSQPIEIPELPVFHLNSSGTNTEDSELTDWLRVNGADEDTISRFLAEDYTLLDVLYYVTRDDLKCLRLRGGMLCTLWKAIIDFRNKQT
The test is described as follows: Inhibition of human recombinant MAP3K5 at 40 nM related to control ULK1.

The target of test [4] is LIM domain kinase 1 (Homo sapiens) (UniProt P53667). Kind of test: Inhibition of human recombinant LIMK1 at 40 nM related to control ULK1.
Sequence of LIM domain kinase 1 (Homo sapiens) (P53667 whole entry, looked up, the tested form may be a part): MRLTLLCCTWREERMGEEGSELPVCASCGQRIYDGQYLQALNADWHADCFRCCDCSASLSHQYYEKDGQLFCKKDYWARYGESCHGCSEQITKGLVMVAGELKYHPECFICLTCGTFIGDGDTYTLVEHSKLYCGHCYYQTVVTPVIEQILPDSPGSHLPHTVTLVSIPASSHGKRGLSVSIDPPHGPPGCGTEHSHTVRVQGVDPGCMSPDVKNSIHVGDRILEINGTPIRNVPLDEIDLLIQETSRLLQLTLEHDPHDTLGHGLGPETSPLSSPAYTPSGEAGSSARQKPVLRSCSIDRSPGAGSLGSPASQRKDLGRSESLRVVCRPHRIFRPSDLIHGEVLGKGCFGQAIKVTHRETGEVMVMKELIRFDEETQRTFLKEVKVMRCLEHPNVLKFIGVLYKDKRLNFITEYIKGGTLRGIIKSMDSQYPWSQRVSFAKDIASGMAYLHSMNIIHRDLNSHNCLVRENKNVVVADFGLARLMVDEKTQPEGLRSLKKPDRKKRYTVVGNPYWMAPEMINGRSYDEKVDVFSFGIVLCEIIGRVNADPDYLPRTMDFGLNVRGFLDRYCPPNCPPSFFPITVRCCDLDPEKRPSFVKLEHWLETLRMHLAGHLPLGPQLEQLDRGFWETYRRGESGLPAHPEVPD
Test [5] addresses Calcium/calmodulin-dependent protein kinase kinase 1 (Homo sapiens) (UniProt Q8N5S9). Kind of test: Inhibition of human recombinant CaMKK1 at 500 nM related to control ULK1.
The target of test [6] is T2, Inhibitor of nuclear factor kappa-B kinase subunit beta (Homo sapiens) (UniProt O14920).
T2 sequence (whole entry): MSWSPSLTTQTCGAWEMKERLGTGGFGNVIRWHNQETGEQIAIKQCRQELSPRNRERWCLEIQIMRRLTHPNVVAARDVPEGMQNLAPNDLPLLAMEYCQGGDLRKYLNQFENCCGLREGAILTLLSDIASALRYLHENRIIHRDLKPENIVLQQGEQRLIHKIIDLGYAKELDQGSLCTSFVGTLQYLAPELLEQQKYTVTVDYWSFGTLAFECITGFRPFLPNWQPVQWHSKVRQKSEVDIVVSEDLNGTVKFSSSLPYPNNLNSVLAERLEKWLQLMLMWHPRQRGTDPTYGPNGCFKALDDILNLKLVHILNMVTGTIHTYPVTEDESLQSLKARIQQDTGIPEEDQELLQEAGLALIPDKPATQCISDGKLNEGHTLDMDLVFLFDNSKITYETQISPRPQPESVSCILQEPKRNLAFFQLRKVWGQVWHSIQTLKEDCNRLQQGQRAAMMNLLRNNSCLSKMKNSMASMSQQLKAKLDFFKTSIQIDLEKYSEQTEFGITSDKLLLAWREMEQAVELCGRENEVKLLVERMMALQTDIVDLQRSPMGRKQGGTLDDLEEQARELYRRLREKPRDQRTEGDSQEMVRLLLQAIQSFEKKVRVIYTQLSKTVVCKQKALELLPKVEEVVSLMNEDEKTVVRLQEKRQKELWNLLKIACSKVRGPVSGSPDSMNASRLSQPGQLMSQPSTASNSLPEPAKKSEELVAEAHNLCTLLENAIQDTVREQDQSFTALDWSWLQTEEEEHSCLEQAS
The test is described as follows: Inhibition of human recombinant IKKb at 500 nM in presence of ATP by radiometric assay relative to control.

In test [7] the target is Serine/threonine-protein kinase Nek4 (Homo sapiens) (UniProt P51957). Kind of test: Inhibition of human recombinant NEK4 at 15 nM in presence of ATP by radiometric assay relative to control.
Sequence of Serine/threonine-protein kinase Nek4 (Homo sapiens) (P51957 whole entry, looked up): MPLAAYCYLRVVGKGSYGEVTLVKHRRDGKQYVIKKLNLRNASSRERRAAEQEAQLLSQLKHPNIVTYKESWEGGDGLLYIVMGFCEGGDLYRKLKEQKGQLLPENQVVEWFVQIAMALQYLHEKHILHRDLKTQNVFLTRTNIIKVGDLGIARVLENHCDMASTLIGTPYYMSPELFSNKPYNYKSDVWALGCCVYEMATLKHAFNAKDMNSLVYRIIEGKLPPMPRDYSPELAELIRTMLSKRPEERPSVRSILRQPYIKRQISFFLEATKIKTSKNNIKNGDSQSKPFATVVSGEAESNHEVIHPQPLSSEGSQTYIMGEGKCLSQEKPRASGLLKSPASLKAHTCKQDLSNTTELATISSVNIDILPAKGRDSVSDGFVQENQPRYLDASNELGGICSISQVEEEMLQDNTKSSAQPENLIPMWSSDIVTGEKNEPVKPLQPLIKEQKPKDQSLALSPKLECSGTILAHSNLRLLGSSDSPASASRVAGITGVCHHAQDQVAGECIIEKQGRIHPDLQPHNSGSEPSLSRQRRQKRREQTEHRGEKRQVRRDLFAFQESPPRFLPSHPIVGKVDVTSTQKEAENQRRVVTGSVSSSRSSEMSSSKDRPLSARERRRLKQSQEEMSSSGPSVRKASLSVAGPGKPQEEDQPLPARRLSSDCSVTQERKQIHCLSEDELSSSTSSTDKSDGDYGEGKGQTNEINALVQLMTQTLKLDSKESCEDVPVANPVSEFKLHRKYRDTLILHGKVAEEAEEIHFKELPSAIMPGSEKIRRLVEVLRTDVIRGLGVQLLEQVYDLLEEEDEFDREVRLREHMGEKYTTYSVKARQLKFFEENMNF

Sequence of Casein kinase I isoform gamma-2 (Homo sapiens) (P78368 whole entry, looked up, canonical isoform): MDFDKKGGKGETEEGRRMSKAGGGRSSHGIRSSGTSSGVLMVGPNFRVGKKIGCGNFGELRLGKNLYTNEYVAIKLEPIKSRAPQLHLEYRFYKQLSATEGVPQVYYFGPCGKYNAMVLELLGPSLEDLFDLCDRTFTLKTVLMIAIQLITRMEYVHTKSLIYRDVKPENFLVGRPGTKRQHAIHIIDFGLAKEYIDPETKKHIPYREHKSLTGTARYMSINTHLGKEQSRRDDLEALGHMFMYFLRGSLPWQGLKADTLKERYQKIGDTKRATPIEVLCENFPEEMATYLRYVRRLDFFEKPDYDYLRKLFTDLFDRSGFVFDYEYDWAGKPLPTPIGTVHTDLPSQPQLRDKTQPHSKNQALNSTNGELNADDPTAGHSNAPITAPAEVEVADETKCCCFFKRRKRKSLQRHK
Sequence of Calcium/calmodulin-dependent protein kinase kinase 1 (Homo sapiens) (Q8N5S9 whole entry, looked up): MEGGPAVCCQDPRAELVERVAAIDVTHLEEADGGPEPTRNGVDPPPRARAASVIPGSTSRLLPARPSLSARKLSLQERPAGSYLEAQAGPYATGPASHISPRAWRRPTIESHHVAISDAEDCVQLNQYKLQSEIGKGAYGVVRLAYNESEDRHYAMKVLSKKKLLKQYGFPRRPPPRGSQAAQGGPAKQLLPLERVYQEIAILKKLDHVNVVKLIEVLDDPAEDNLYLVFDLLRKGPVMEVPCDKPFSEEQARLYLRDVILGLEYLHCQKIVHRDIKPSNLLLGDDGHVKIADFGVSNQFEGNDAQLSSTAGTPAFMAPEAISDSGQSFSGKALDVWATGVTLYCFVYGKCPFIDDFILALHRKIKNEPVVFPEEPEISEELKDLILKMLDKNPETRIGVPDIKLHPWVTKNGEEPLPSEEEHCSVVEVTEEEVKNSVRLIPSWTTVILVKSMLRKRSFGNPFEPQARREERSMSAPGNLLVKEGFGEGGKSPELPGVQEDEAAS

Consider `O=C(N[C@@H](C1CC1)C(F)(F)F)c1cc(-c2cnn3cc(-c4ccc(F)cc4)cnc23)cs1`, for which the fold change (FC) in test [1] came to 0.07; in test [3], 0; in test [4], 0.21. The inhibition in test [2] turned out to be 0%.

Regarding `CNC(=O)c1ccccc1Oc1nc(Nc2cc(OC)c(OC)c(OC)c2)ncc1Br`, in test [5], the fold change (FC) was 0.11. Moreover, the inhibition in test [6] was 2%.

Consider `CC(C)[C@H](NC(=O)c1cc(-c2cnn3cc(-c4ccc(OCCN5CCCCC5)cc4)cnc23)cs1)C(F)(F)F`, for which the inhibition in test [7] was found to be 6%.
